What was measured:
Format in all cases: cell-based
[1] = system: mold; test: CO2 study in barley samples, propylene glycol esters compared with other esters (Example 10); conditions: barley 19.8% moisture, 0.02-0.08 mol/kg, molar basis
Procedure: (§1) Materials. The moisture level of barley samples was increased till 20.2%. [table] Statistical analysis. To determine significant differences in CO2-values (p<0.05), repeated measures analysis was performed by method of General Linear Models procedure (StatGraphics Centurion XV). The repeated measures statistical treatment of results was used because it can be used when change over time is assessed. Where significant differences resulted, Multiple Range Test was used to separate the means.

[2] = system: mold; test: CO2 study in soybean meal samples (Example 13); conditions: 0.06 mol/kg, after one month of storage
Procedure: Efficacy on soybean meal. FIGS. 18 and 19 show the CO2 production (%) of the untreated soybean meal samples compared to the soybean meal samples treated with ester 1 and propionic acid at a dosage of 0.06 and 0.08 mol/kg, respectively. In the untreated samples, a fast increase in CO2 level was measured within the first days and the CO2 value stayed around 20% during the whole course of the trial. […] Samples treated with ester 1 and propionic acid at a dosage of 0.08 mol/kg were still completely stable after 84 days.

[3] = system: mold; test: CO2 study in barley samples, dose response of propionic acid esters as mold inhibitors (Example 9); conditions: barley 20.2% moisture
Procedure: Materials. Barley was procured from a local supplier.
Efficacy. The moisture level of barley was determined before the start of the experiments4. The moisture level of the barley samples was adjusted to 20.2+/−0.5% by the addition of tap water. The barley samples, with the adjusted moisture content, were afterwards treated with the different extracted esters at different dose levels (0.02 mol/kg, 0.04 mol/kg, 0.06 mol/kg and 0.08 mol/kg). The untreated barley samples and samples treated with propionic acid (0.02 mol/kg-0.08 mol/kg) were included as controls. All barley samples were collected in closed plastic containers for evaluation of the CO2-production. The samples were stored at 25° C. The CO2-production in the headspace was monitored regularly during a 3-month period using the Edinburgh sensor Guardian NG. Three replicates were analyzed for each treatment.
as §1, with “Statistical” for “Materials. The moisture level of barley samples was increased till 20.2%. [table] Statistical”, “CO2-values values” for “CO2-values”

CC(=O)O [acetic acid] was tested, and the “efficacy in controlling mold growth (CO2 evolution), comparative” value [1] was “less effective in controlling mold growth compared to propionic acid”.

CCC(=O)O [propionic acid] was tested, and the “CO2 levels during storage” value [2] was “CO2 levels started to increase”, the “CO2 increase compared to the esters” value ([3]; 0.06 mol/kg) was “CO2 increased faster” and the “storage time for which samples stay stable / after which CO2 starts increasing” value ([3]; 0.08 mol/kg) was 40 days.

From US20230189803A1, “COMPOSITIONS CONTAINING ORGANIC ACIDS AND THEIR ESTERS TO PREVENT MOLD CONTAMINATION IN ANIMAL FEED” (KEMIN INDUSTRIES, INC., priority 2021, published 2023)
